# In US4128629A, “Extraction-free cortisol assay” (Corning Glass Works, priority 1977, dated 1978):
# Where “and” joins values, the source holds several entries; their conditions need not be identical. Identical values can stand only once.
# Target: T1, transcortin (TC) (Homo sapiens, UniProt P08185)
# T1 sequence (P08185 23-405): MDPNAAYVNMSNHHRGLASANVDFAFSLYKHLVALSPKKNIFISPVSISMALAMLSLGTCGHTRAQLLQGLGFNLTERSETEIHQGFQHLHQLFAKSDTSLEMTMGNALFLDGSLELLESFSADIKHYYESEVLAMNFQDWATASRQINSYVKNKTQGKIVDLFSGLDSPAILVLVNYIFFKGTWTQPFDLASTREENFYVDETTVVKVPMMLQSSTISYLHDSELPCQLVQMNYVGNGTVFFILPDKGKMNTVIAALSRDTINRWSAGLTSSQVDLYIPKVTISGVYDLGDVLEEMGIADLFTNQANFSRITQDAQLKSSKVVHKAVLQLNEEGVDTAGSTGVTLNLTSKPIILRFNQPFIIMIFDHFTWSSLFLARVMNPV
# Test: Cortisol released from serum sample (release from TC) by ANS and pH, compared with heat denaturation
# Conditions: typical patient serum samples; one value per patient sample; compared with heating at 100° C. for about 10 min
# Experimental: (§1) A lyophilized mixture of the tracer (about 50,000 DPM), 200 μg of ANS, and PBS is reconstituted to a 100 μl solution with water in an identified glass test tube to which is pipetted a […] serum sample having an unknown cortisol concentration. A non-interferring red dye such as Durkees Staff Brand may be included with the tracer solution to indicate that presence of the tracer.
# Then, a 1 ml suspension of the immobilized antibodies (0.20 mg of anti-cortisol antibodies chemically coupled via N-hydroxysuccinimide linkage to silanized glass particles having an average particle size of about 1.7 microns is pipetted into the tube. The tube is vortexed for 2 or 3 seconds, allowing the composite of immobilized antibodies to be suspended. The reaction tube is incubated for about 1 hour at room temperature. The tube is then centrifuged for about 10 minutes at about 1400 to 1600 gravities (g). The relatively high density of the glass support facilitates this separation step. After centrifugation, the supernatant fluid is decanted and it or the composite at the bottom of the tube is counted for radioactivity. […]
row,Compound,Cortisol Released
1,"O=S(=O)(O)c1cccc2cccc(Nc3ccccc3)c12 [ANS, 8-anilino-1-naphthalene sulfonic acid]",59 ng/mL and 90 ng/mL and 270 ng/mL and 465 ng/mL

# Tested on: anticortisol antibody composite
# Test: Cross-reactivity (specificity) of the solid phase cortisol radioimmunoassay
# Format: binding
# Design: key: ratio of cortisol to cross-reactant amount at 50% displacement
# Conditions: ratio of the cortisol level to the steroid level at fifty percent relative displacement of labeled cortisol from immobilized anti-cortisol antibody
# Experimental: as §1
# Then, a 1 ml suspension of the immobilized antibodies (0.20 mg of anti-cortisol antibodies chemically coupled via N-hydroxysuccinimide linkage to silanized glass particles having an average particle size of about 1.7 microns is pipetted into the tube. The tube is vortexed for 2 or 3 seconds, allowing the composite of immobilized antibodies to be suspended. The reaction tube is incubated for about 1 hour at room temperature. The tube is then centrifuged for about 10 minutes at about 1400 to 1600 gravities (g). The relatively high density of the glass support facilitates this separation step. After centrifugation, the supernatant fluid is decanted and it or the composite at the bottom of the tube is counted for radioactivity. Since the amount of radioactivity in disintegrations per minute (DPM) of the initial tracer was known, the amount associated with the composite (that which competed with the unknown cortisol for sites on the composite), provides an indication of the cortisol present, using known correlation techniques.
# The cross-reactivity of the anticortisol antibody composite for a substance may be expressed as the ratio of the amount of cortisol required to displace 50% of the labeled antigen from the antibody, to the amount of cross-reacting substance needed to cause a similar displacement.
row,Compound,Ratio of Cross Reactivity
1,C[C@]12CCC(=O)C[C@@H]1CC[C@@H]1[C@@H]2CC[C@]2(C)[C@@H](O)CC[C@@H]12 [5α-Dihydrotestosterone],0.007
2,C[C@]12CC[C@H]3[C@@H](CCC4=CC(=O)CC[C@@]43C)[C@@H]1CC[C@@H]2C(=O)CO [11-Desoxycorticosterone],0.10
3,C[C@]12CCC(=O)C=C1CC[C@@H]1[C@@H]2CC[C@@]2(C)[C@H]1CC[C@]2(O)C(=O)CO [11-Desoxycortisol],0.11
4,CC(=O)[C@@]1(O)CC[C@H]2[C@@H]3CCC4=CC(=O)CC[C@]4(C)[C@H]3CC[C@@]21C [17α-Hydroxyprogesterone],0.026
5,C[C@@H](O)[C@H]1CC[C@H]2[C@@H]3CCC4=CC(=O)CC[C@]4(C)[C@H]3CC[C@]12C [20β-Hydroxyprogesterone],0.026
6,C[C@]12CCC(=O)C=C1CC[C@@H]1[C@@H]2CC[C@]2(C)C(=O)CC[C@@H]12 [Androstenedione],< 0.004
7,CC(C)CCC[C@@H](C)[C@H]1CC[C@H]2[C@@H]3CC=C4C[C@@H](O)CC[C@]4(C)[C@H]3CC[C@]12C [Cholesterol],< 0.001
8,C[C@]12C[C@H](O)[C@H]3[C@@H](CCC4=CC(=O)CC[C@@]43C)[C@@H]1CC[C@@H]2C(=O)CO [Corticosterone],0.12
9,C[C@]12CCC(=O)C=C1CC[C@@H]1[C@@H]2[C@@H](O)C[C@@]2(C)[C@H]1CC[C@]2(O)C(=O)CO [Cortisol],1.00
10,C[C@]12CCC(=O)C=C1CC[C@@H]1[C@@H]2C(=O)C[C@@]2(C)[C@H]1CC[C@]2(O)C(=O)CO [Cortisone],0.008
11,C[C@]12CC[C@@H]3c4ccc(O)cc4CC[C@H]3[C@@H]1CC[C@@H]2O [Estradiol-17β],< 0.001
12,C[C@]12CC[C@@H]3c4ccc(O)cc4CC[C@H]3[C@@H]1C[C@@H](O)[C@@H]2O [Estriol],< 0.001
13,C[C@]12CC[C@@H]3c4ccc(O)cc4CC[C@H]3[C@@H]1CCC2=O [Estrone],< 0.001
14,C[C@]12C=CC(=O)C=C1CC[C@@H]1[C@@H]2[C@@H](O)C[C@@]2(C)[C@H]1CC[C@]2(O)C(=O)CO [Prednisolone],0.10
15,C[C@]12C=CC(=O)C=C1CC[C@@H]1[C@@H]2C(=O)C[C@@]2(C)[C@H]1CC[C@]2(O)C(=O)CO [Prednisone],0.004
16,CC(=O)[C@H]1CC[C@H]2[C@@H]3CCC4=CC(=O)CC[C@]4(C)[C@H]3CC[C@]12C [Progesterone],0.041
17,C[C@]12CC[C@H]3[C@@H](CCC4=CC(=O)CC[C@@]43C)[C@@H]1CC[C@@H]2O [Testosterone],0.002
18,C[C@]12CC[C@@H](O)C[C@H]1CC[C@@H]1[C@@H]2[C@@H](O)C[C@@]2(C)[C@H]1CC[C@]2(O)C(=O)CO [Tetrahydrocortisol],< 0.001
